Assay results published in US5519057A, “Ibuprofen-containing medicament” (priority 1986, dated 1996).

Tests used:
[1] = tested on: afferent nerves of the feet of female Rhesus monkeys; test: Analgesia test: threshold voltage for stimulus response on electrical stimulation of the feet of female Rhesus monkeys; assay type: in vivo, Rhesus monkeys (macaca mulatta); details: for Median percentage change in the threshold voltage: ibuprofen forms 50 mg/kg, acetylsalicylic acid 100 mg/kg; for change in the threshold voltage (in words) / increase of the threshold voltage / time to achieve the increase of threshold voltage / analgetic effect (in words): 50 mg/kg ibuprofen form
Procedure: In this test the afferent nerves of the feet of female Rhesus monkeys were electrically stimulated. For the test four adult female Rhesus monkeys (macaca mulatta) were used.
The monkeys were trained in such a way that they sat in chairs wearing an aluminium foil shoe during the test.
On the days when the test was carried out the monkeys were sat in these stools. One foot of each monkey was smeared with electrode gel and the aluminium shoe was fitted over it.
A Grass-stimulator (S 88) was connected to the monkeys via a multiple-way switch (the positive lead was connected to the aluminium shoe, the negative lead to the chair). An electrical stimulation, each time of 2 seconds duration with a frequency of 60 Hz was applied (the magnitude of stimulation was altered by adjusting the voltage supplied to the stimulator; the corresponding current was measured by means of an ammeter connected in series).
The stimulus required to achieve a stimulus threshold was determined. For this purpose the voltage was raised stepwise. The threshold voltage was taken as the lowest voltage at which bending of the toes or twisting of the foot occurred.
Before application of the medicament the animals were allowed to acclimatize for at least one hour. During this period the threshold voltage was determined at 10 minute intervals until steady readings were obtained.
Following the acclimatization period the carrier material or the active ingredient were orally administered. The threshold voltage required to effect a stimulus response in the foot of each monkey was determined at 30 minute intervals for 3 hours and then after 4 and 5 hours after administration of the active ingredient.
The observer and the stimulation apparatus were concealed behind a one-way mirror.
Between the individual tests there was an interval of at least one week.
The active ingredients 1 to 4 were prepared for oral administration by suspending them in 1.0% w/v Tragacanth. The medicaments were prepared directly before use and administered in a dose of 4 ml/kg.

prostaglandin synthesis = details: animals with inflammation; cited from earlier work
humans [2] = details: cited from earlier work
[3] = metabolites excreted in the urine; cited from earlier work
[4] = human, oral
humans [5] = test: Analgetic activity in humans; assay type: in vivo; details: no data given
[6] = 0,5 h after oral administration
[7] = 1,0 h after oral administration, *P < 0,05 vs carrier (Mann-Whitney U) over (+)-S-Ibuprofen and acetylsalicylic acid
[8] = 1,5 h after oral administration, *P < 0,05 vs carrier (Mann-Whitney U) over (+)-S-Ibuprofen
[9] = 2,0 h after oral administration
[10] = 2,5 h after oral administration
[11] = 3,0 h after oral administration
[12] = 4,0 h after oral administration
[13] = 5,0 h after oral administration
[14] = oral, 100 mg/kg acetylsalicylic acid

## CC(C)Cc1ccc(C(C)C(=O)O)cc1 (racemic) [(±)-ibuprofen, 2-(4-Isobutylphenyl)-propionic acid]
[1]; [6]
  Median percentage change in the threshold voltage: +6,4%
[1]; [7]
  Median percentage change in the threshold voltage: +8,4%
[1]; [8]
  Median percentage change in the threshold voltage: +15,7%
[1]; [9]
  Median percentage change in the threshold voltage: +15,7%
[1]; [10]
  Median percentage change in the threshold voltage: +8,5%
[1]; [11]
  Median percentage change in the threshold voltage: +18,1%
[1]; [12]
  Median percentage change in the threshold voltage: +9,7%
[1]; [13]
  Median percentage change in the threshold voltage: +17,0%
[1]; oral
  change in the threshold voltage (in words): the level remained during the rest of the test period
  increase of the threshold voltage: approximately 15%
  time to achieve the increase of threshold voltage: ≤ 90 min
[1]; oral, listed as ibuprofen racemate, 50 mg/kg
  analgetic effect (in words): analgetic activity was assumed
[1]; oral, listed as racemate, 50 mg/kg
  analgetic effect (in words): weak but long-lasting analgetic effect
[1]; oral, 50 mg/kg, every time after 90 minutes with the exception of 150 minutes
  difference between the median change between ibuprofen racemate and carrier: more than 20%
Prostaglandin synthesis
  inhibition of prostaglandin synthesis: effective in inhibiting prostaglandin synthesis
Humans [2]; human
  known period of action: ca. 6 hours
Humans [2]; in vivo
  side effects: usual unwanted side effects of NSAR
Humans [2]; therapy of humans
  therapeutic effect in humans: reduces pain, swelling and fever caused by inflammation

## CC(C)Cc1ccc([C@@H](C)C(=O)O)cc1 [(R)-(-)-ibuprofen]
[1]; [6]
  Median percentage change in the threshold voltage: -5,7%
[1]; [7]
  Median percentage change in the threshold voltage: +4,0%
[1]; [8]
  Median percentage change in the threshold voltage: +4,5%
[1]; [9]
  Median percentage change in the threshold voltage: +0,5%
[1]; [10]
  Median percentage change in the threshold voltage: -4,7%
[1]; [11]
  Median percentage change in the threshold voltage: -7,0%
[1]; [12]
  Median percentage change in the threshold voltage: -2,3%
[1]; [13]
  Median percentage change in the threshold voltage: -3,4%
[1]; oral
  analgetic effect (in words): inactive
  change in the threshold voltage (in words): no significant change in the threshold voltage
[3]
  conversion to the active (S)-(+)-enantiomer in vivo: converted to the active (S)-(+)-enantiomer in vivo
[4]; after the first 4 to 6 hours
  late plasma levels as % of the maximum level: less than 10%
[4]; only after the first 4 to 6 hours
  plasma levels relative to those after administration of the (S)-(+)-form: equally high or higher levels

## CC(C)Cc1ccc([C@H](C)C(=O)O)cc1 [(S)-(+)-ibuprofen]
[1]; [6]
  Median percentage change in the threshold voltage: +9,5%
[1]; [7]
  Median percentage change in the threshold voltage: +33,5%
[1]; [8]
  Median percentage change in the threshold voltage: +51,2%
[1]; [9]
  Median percentage change in the threshold voltage: +53,9%
[1]; [10]
  Median percentage change in the threshold voltage: +45,5%
[1]; [11]
  Median percentage change in the threshold voltage: +42,3%
[1]; [12]
  Median percentage change in the threshold voltage: +33,7%
[1]; [13]
  Median percentage change in the threshold voltage: +38,2%
[1]; analgesia tests on monkeys
  amount of (S)-(+)-ibuprofen required relative to racemic ibuprofen to give a given analgetic activity: less than half as much
[1]; oral
  analgetic effect (in words): notable analgesic effect which was maintained for several hours
  change in the threshold voltage (in words): the threshold voltage remained elevated during the rest of the test period
  increase of the threshold voltage: ~50%
  time to achieve the increase of threshold voltage: 90 min
Humans [5]
  reduced dose requirement versus racemate shown in humans: could also be shown in humans

## CC(=O)Oc1ccccc1C(=O)O [Acetylsalicylic acid]
[1]; [6]
  Median percentage change in the threshold voltage: +35,8%
[1]; [7]
  Median percentage change in the threshold voltage: +56,6%
[1]; [8]
  Median percentage change in the threshold voltage: +41,4%
[1]; [9]
  Median percentage change in the threshold voltage: +80,4%
[1]; [10]
  Median percentage change in the threshold voltage: +74,6%
[1]; [11]
  Median percentage change in the threshold voltage: +72,8%
[1]; [12]
  Median percentage change in the threshold voltage: +66,1%
[1]; [13]
  Median percentage change in the threshold voltage: +59,8%
[1]; [14]
  increase of the threshold voltage required for a stimulus response: ~80%
  time to achieve the level of analgesia: ≤ 2 h
[1]; oral, 100 mg/kg acetylsalicylic acid, after level achieved, up to 5 h
  threshold voltage increase remaining throughout the duration of the test: above 60%
